Data from patent publication US20250025484A1, “POLYMERSOME NANOPARTICLES EXHAUSTING INTRACELLUAR AMINO ACID FOR CANCER THERAPY AND METHODS THEREOF” (THE UNIVERSITY OF HONG KONG, priority 2023, published 2025).

What was measured:
Assay type in all cases: cell-based, human
A549 cells [1] = test: TMR-Dextran internalization (macropinocytosis marker); conditions: EBSS plus EIPA (50 μM, pretreated 1 h before)
Description: (§1) For in vitro fluorescent imaging detection, the cells were seeded on Nunc glass bottom confocal dishes (Thermo Fischer Scientific, USA) for 24 h. Unless explained, the cells were incubated with FITC-BSA (0.2 mg/mL), BSA-AF647 (0.05 mg/mL), or DQ-BSA (10 μg/mL) for 4 h for protein internalization and extracellular protein degradation analysis, respectively. TMR-Dextran (0.125 mg/mL) was applied for 1 h as a macropinocytosis marker. Subsequently, after washed with PBS three times, the cells were fixed in 3.7% paraformaldehyde solution in PBS for 10 min, followed by washing with PBS three times and staining with DAPI according to the protocol (Thermo Fischer Scientific, D1306). After washing with PBS three times, the cells were mounted with SlowFade Diamond Antifade Mountant (Thermo Fischer Scientific, S36963). The in vivo TUNEL assay was conducted using the one-step TUNEL assay kit (C1088, Beyotime, China). The Zeiss LSM 900 inverted confocal microscope equipped with 10×0.45 NA, 20×0.8 NA and 40×1.4 NA lens was employed to analyze intracellular fluorescent signals. The same exposure settings were used across all conditions in each individual experiment.
(§2) The cells were seeded in 12-well plates at 1×10^5 density. […] After washing with PBS three times, the cells were harvested and analyzed by Agilent NovoCyte Quanteon analyzer.

A549 cells [2] = test: DQ-BSA internalization and degradation analysis
Description: as §1, with “Unless explained, the cells were incubated with FITC-BSA (0.2 mg/mL), BSA-AF647 (0.05 mg/mL), or DQ-BSA (10 μg/mL) for 4 h for protein internalization and extracellular protein degradation analysis, respectively.” left out, “([…],” for “(C1088,”, “experiment. The cells were seeded in 12-well plates at 1×10^5 density. Unless explained, the cells were incubated with FITC-BSA (0.2 mg/mL), DQ-BSA (10 μg/mL), or Me4BodipyFL-Ahx3Leu3VS (1 μM) for 4 h for protein internalization, extracellular protein degradation, and proteasome activity analysis, respectively. […] After washing with PBS three times, the cells were harvested and analyzed by Agilent NovoCyte Quanteon analyzer.” for “experiment.”

A549 cells [3] = test: FITC-BSA protein internalization
Description: as §1, §2

SQSTM1 = test: Western blot of SQSTM1; conditions: A549 cells, EBSS plus BSA medium, 4 h
Description: The cells were plated in 12-well plates at 1×10^5 density and incubated for 24 h. Subsequently, the cells received indicated treatments for 4 h and the cells were washed with 1×PBS three times and harvested with RIPA buffer (supplemented with Halt protease and phosphatase inhibitor cocktail, Thermo Fischer Scientific, USA). Total protein concentration was determined by pierce BCA protein assay kit (Thermo Fischer Scientific, #23225). Equal amounts of proteins were loaded. SDS-PAGE electrophoresis was utilized to separate proteins, which were subsequently transferred to a nitrocellulose membrane through the wet transfer system. The membranes were blocked with 5% BSA in TBST at room temperature for 1 h and incubated with indicated primary antibodies overnight under 4° C. After washed with TBST, the blots were incubated with secondary antibodies for 1 h at room temperature. After washed with TBST three times, the proteins blots were visualized by Clarity Western ECL Substrate (BioRad) and captured by ChemiDoc Imaging System (BioRad). […]

[4] = tested on: K48-polyubiquitinated proteins in A549 cells; test: Western blot of K48-polyubiquitinated proteins; conditions: EBSS plus BTZ (10 μM), 2 h or 24 h
Description: The cells were plated in 12-well plates at 1×10^5 density and incubated for 24 h. […] Total protein concentration was determined by pierce BCA protein assay kit (Thermo Fischer Scientific, #23225). Equal amounts of proteins were loaded. SDS-PAGE electrophoresis was utilized to separate proteins, which were subsequently transferred to a nitrocellulose membrane through the wet transfer system. The membranes were blocked with 5% BSA in TBST at room temperature for 1 h and incubated with indicated primary antibodies overnight under 4° C. After washed with TBST, the blots were incubated with secondary antibodies for 1 h at room temperature. After washed with TBST three times, the proteins blots were visualized by Clarity Western ECL Substrate (BioRad) and captured by ChemiDoc Imaging System (BioRad). The following antibodies were used: K48-polyubiquitinated proteins (Cell signaling technology, #8081), p-S6K (Cell signaling technology, #9234), S6K (Cell signaling technology, #2708), mTOR (Cell signaling technology, #2983), β-Actin (Cell signaling technology, #4967), SQSTM1 (Abcam, ab91526), HRP-conjugated secondary antibody (Abcam, ab6789), HRP-conjugated secondary antibody (Abcam, ab6721).

proteasome = test: Proteasome activity probe (Me4BodipyFL-Ahx3Leu3VS) flow cytometry; conditions: A549 cells, EBSS plus BTZ (10 μM), 4 h, vs EBSS
Description: The cells were seeded in 12-well plates at 1×10^5 density. Unless explained, the cells were incubated with FITC-BSA (0.2 mg/mL), DQ-BSA (10 μg/mL), or Me4BodipyFL-Ahx3Leu3VS (1 μM) for 4 h for protein internalization, extracellular protein degradation, and proteasome activity analysis, respectively. TMR-Dextran (0.125 mg/mL) was applied for 1 h as a macropinocytosis marker. After washing with PBS three times, the cells were harvested and analyzed by Agilent NovoCyte Quanteon analyzer.

A549 cells [5] = test: Cytotoxicity assay (MTT); conditions: BTZ (20 μM), EBSS vs DMEM, 24 h
Description: The cells were seeded in 96-well plates and cultured for 24 h. To investigate the influence of starvation on BTZ treatment, the cells were incubated with BTZ (20 μM) or DMSO, in complete DMEM or EBSS medium for 24 h. To investigate the combination effect of EIPA and BTZ, the cells were treated with a series of concentration of EIPA and BTZ in EBSS (plus 3% BSA) medium for 24 h. 10 μL of MTT (5 mg/mL) were added into each well and incubated for 2-4 h. Then the supernatant was changed with 100 μL DMSO to dissolve the precipitate. Subsequently, the absorbance of the solution at 570 nm and 630 nm was measured by a microplate reader (SpectraMax M4, Molecular Devices LLC, San Jose, CA). The cell viability was calculated by OD570-OD630 and normalized to DMSO control group.

A549 cells [6] = test: mCherry-GFP-LC3 reporter and BSA-AF647 internalization (CLSM); conditions: EBSS plus BTZ, 4 h, vs starved cells
Description: as §1, with “experiment. […]” for “experiment.”

CCN(c1nc(N)c(C(=O)N=C(N)N)nc1Cl)C(C)C [EIPA, 5-(n-ethyl-n-isopropyl)-amiloride]
TMR-Dextran internalization (macropinocytosis) (A549 cells [1]): inhibited | fluorescence intensity of DQ-BSA (intracellular protein degradation) (A549 cells [2]; A549 cells pre-incubated with DQ-BSA 1 h, then EBSS with 3% BSA plus EIPA 3 h, vs starvation group): further increased the fluorescence intensity of DQ-BSA | starvation-amplified FITC-BSA uptake (A549 cells [3]; EBSS plus EIPA (50 μM, pretreated 1 h before), 1 h): notably blocked

CC(C)C[C@H](NC(=O)[C@H](Cc1ccccc1)NC(=O)c1cnccn1)B(O)O [BTZ, bortezomib]
SQSTM1 expression level (SQSTM1): exacerbated starvation-induced SQSTM1 decrease | fluorescence intensity of DQ-BSA (internalized protein degradation) (A549 cells [2]; A549 cells, EBSS plus BTZ (10 μM), 4 h, vs EBSS): substantially decreased | level of K48-polyubiquitinated proteins [4]: profound accumulation of polyubiquitinated proteins | fluorescence intensity of proteasome probe (proteasome activity) (proteasome): remarkably reversed | cell viability (A549 cells [5]): much more significant decrease of cell viability in starved cancer cells | LC3 puncta (autophagy flux) (A549 cells [6]): further enhanced | percentage of BSA-AF647 colocalized with LC3 puncta (A549 cells [6]): increased the percentage of BSA-AF647 colocalized with LC3 puncta | FITC-BSA protein internalization (A549 cells [3]; EBSS plus BTZ, 4 h): further increased protein internalization
